Data as given in the supplement of paper PMC11061612.

Legend:
[1] = tested on: NCI-H1299 (Non-Small Cell Lung Carcinoma); experiment: combination Emax (second highest fraction inhibited in the dose matrix, 72 h); higher = more inhibition; extreme values may be limits of the assay
Procedure, shortened: (§1)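 Cell lines in DMEM/F12 or RPMI with 10% FBS were plated in 1536-well plates, held 24 hours at 37°C, 5% CO2, then given two-drug dose matrices for 72 hours (DMSO typically 0.2%). Viability was read by CellTiter-Glo 2.0 luminescence and scaled as inhibition from 0 (vehicle wells) to 1 (blank wells). Combination Emax is the second-highest inhibition in the matrix; Bliss excess is observed combination effect minus expected EA + EB − EA·EB, EA and EB being single-agent effects.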

[2] = tested on: COR-L95 (Small Cell Lung Carcinoma); experiment: as above
Procedure, shortened: as §1

[3] = tested on: HT-29 (Colorectal Carcinoma); experiment: as above
Procedure, shortened: as §1

[4] = tested on: MDA-MB-231 (Breast Carcinoma); experiment: as above
Procedure, shortened: as §1

[5] = tested on: KATOIII (Gastric Carcinoma); experiment: as above
Procedure, shortened: as §1

[6] = tested on: DSH1 (Bladder Carcinoma); experiment: as above
Procedure, shortened: as §1

[7] = tested on: IHH-4 (Thyroid Gland Carcinoma); experiment: as above
Procedure, shortened: as §1

[8] = tested on: MDA-MB-157 (Breast Carcinoma); experiment: as above
Procedure, shortened: as §1

[9] = tested on: NALM-6 (B-Lymphoblastic Leukemia); experiment: as above
Procedure, shortened: as §1

[10] = tested on: DOV13 (Ovarian Carcinoma); experiment: as above
Procedure, shortened: as §1

[11] = tested on: MFH-ino (Other Solid Carcinomas); experiment: as above
Procedure, shortened: as §1

[12] = tested on: U-266 (Plasma Cell Myeloma); experiment: as above
Procedure, shortened: as §1

[13] = tested on: ES7 (Ewing's Sarcoma); experiment: as above
Procedure, shortened: as §1

[14] = tested on: SW1088 (Low Grade Glioma); experiment: as above
Procedure, shortened: as §1

[15] = tested on: RH-1 (Ewing's Sarcoma); experiment: Bliss excess, mean over the matrix (fraction); higher = more synergy
Procedure, shortened: as §1

[16] = tested on: SW756 (Cervical Carcinoma); experiment: as above
Procedure, shortened: as §1

[17] = tested on: SW780 (Bladder Carcinoma); experiment: as above
Procedure, shortened: as §1

[18] = tested on: KM-H2 (Hodgkin's Lymphoma); experiment: as above
Procedure, shortened: as §1

[19] = tested on: SUIT-2 (Pancreatic Carcinoma); experiment: as above
Procedure, shortened: as §1

[20] = tested on: TGBC24TKB (Biliary Tract Carcinoma); experiment: as above
Procedure, shortened: as §1
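Wherever Bliss excess, mean over the matrix is given: after 72 h of two-drug dosing.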

Compound	combination Emax [1]	combination Emax [2]	combination Emax [3]	combination Emax [4]	combination Emax [5]	combination Emax [6]	combination Emax [7]	combination Emax [8]	combination Emax [9]	combination Emax [10]	combination Emax [11]	combination Emax [12]	combination Emax [13]	combination Emax [14]	Bliss excess [15]	Bliss excess [16]	Bliss excess [17]	Bliss excess [18]	Bliss excess [19]	Bliss excess [20]
CS(=O)(=O)CCNCc1ccc(-c2ccc3ncnc(Nc4ccc(OCc5cccc(F)c5)c(Cl)c4)c3c2)o1 [Lapatinib] + NC1(c2ccc(-c3nc4ccn5c(=O)[nH]nc5c4cc3-c3ccccc3)cc2)CCC1 [MK-2206] (first compound max 10 µM, 7x7, partner max 10 µM)	0.407	0.904	0.95	0.729	0.44	1	0.92	0.273	0.957	0.867	0.153	0.352	0.938	0.624	-0.0202	-0.0506	-0.0054	0.0116	-0.0219	0.0667
C[C@@H](Oc1cc(-c2cnn(C3CCNCC3)c2)cnc1N)c1c(Cl)ccc(F)c1Cl [Crizotinib] + Cn1cnc2c(F)c(Nc3ccc(Br)cc3Cl)c(C(=O)NOCCO)cc21 [Selumetinib] (first compound max 10 µM, 7x7, partner max 10 µM)	0.574	0.345	0.98	0.725	0.588	0.229	0.758	0.243	0.905	0.647	0.542	0.624	0.818	0.596						
N#Cc1cnc(Nc2cc(NC[C@H]3CNCCO3)c(C(F)(F)F)cn2)cn1 [SRA737] + CCc1c2c(nc3ccc(O)cc13)-c1cc3c(c(=O)n1C2)COC(=O)[C@]3(O)CC [SN-38] (first compound max 10 µM, 7x7, partner max 0.3 µM)	0.559	0.572	0.903	0.908	0.543	0.95	0.98	0.955	1	0.994	0.704	0.576	1	0.736						
O=C(c1cc(Cc2n[nH]c(=O)c3ccccc23)ccc1F)N1CCN(C(=O)C2CC2)CC1 [Olaparib] + Cc1c2c(nn1C)CSCc1cc(n(C)n1)CSc1cc(c3ccccc3c1)OCCCc1c(C(=O)O)n(C)c3c-2c(Cl)ccc13 [AZD5991] (first compound max 10 µM, 7x7, partner max 1 µM)	0.0533	0.395	0.0739	0.161	0.356	0.692	0.174	0.655	0.74	0.216	0.0277	0.846	0.942	0.136						
CC1(C)CCC(CN2CCN(c3ccc(C(=O)NS(=O)(=O)c4ccc(NCC5CCOCC5)c([N+](=O)[O-])c4)c(Oc4cnc5[nH]ccc5c4)c3)CC2)=C(c2ccc(Cl)cc2)C1 [Venetoclax] + CS(=O)(=O)CCNCc1ccc(-c2ccc3ncnc(Nc4ccc(OCc5cccc(F)c5)c(Cl)c4)c3c2)o1 [Lapatinib] (first compound max 1 µM, 7x7, partner max 10 µM)	0.125	0.677	0.731	0.17	0.291	0.747	0.175	0.172	0.911	0.166	0.0533	0.254	0.613	0.254						
O=C(c1cc(Cc2n[nH]c(=O)c3ccccc23)ccc1F)N1CCN(C(=O)C2CC2)CC1 [Olaparib] + COc1nnc2ccc(N3CCC(c4ccc(OCCN5CCN(C)C(=O)[C@H]5C)cc4)CC3)nn12 [AZD5153] (first compound max 10 µM, 7x7, partner max 1 µM)	0.637	0.455	0.658	0.626	0.4	0.647	0.535	0.438	0.911	0.455	0.346	0.291	0.944	0.392						
C[C@@H](Nc1cc(F)cc(F)c1)c1cc(C(=O)N(C)C)cc2c(=O)cc(N3CCOCC3)oc12 [AZD8186] + C1CN(CCC1(C(=O)N[C@@H](CCO)C2=CC=C(C=C2)Cl)N)C3=NC=NC4=C3C=CN4 [AZD5363] (first compound max 10 µM, 7x7, partner max 10 µM)	0.314	0.225	0.449	0.281	0.0505	0.327	0.227	0.264	0.674	0.28	0.348	0.138	0.509	0.742						
Cc1c2c(nn1C)CSCc1cc(n(C)n1)CSc1cc(c3ccccc3c1)OCCCc1c(C(=O)O)n(C)c3c-2c(Cl)ccc13 [AZD5991] + CS(=O)(=O)CCNCc1ccc(-c2ccc3ncnc(Nc4ccc(OCc5cccc(F)c5)c(Cl)c4)c3c2)o1 [Lapatinib] (first compound max 1 µM, 7x7, partner max 10 µM)	0.301	0.177	0.783	0.263	0.415	0.991	0.278	0.883	0.761	0.185	0.234	0.845	0.737	0.36						
C[C@@H](Nc1cc(F)cc(F)c1)c1cc(C(=O)N(C)C)cc2c(=O)cc(N3CCOCC3)oc12 [AZD8186] + CC(=O)c1c(C)c2cnc(Nc3ccc(N4CCNCC4)cn3)nc2n(C2CCCC2)c1=O [Palbociclib] (first compound max 10 µM, 7x7, partner max 10 µM)	0.497	0.273	0.562	0.49	0.356	0.471	0.426	0.333	0.833	0.484	0.423	0.155	0.724	0.724						
N#Cc1cnc(Nc2cc(NC[C@H]3CNCCO3)c(C(F)(F)F)cn2)cn1 [SRA737] + O=c1[nH]cc(F)c(=O)[nH]1 [5-Fluorouracil] (first compound max 10 µM, 7x7, partner max 20 µM)	0.448	0.232	0.696	0.271	0.565	0.414	0.934	0.926	0.896	0.347	0.314	0.633	0.82	0.691						
O=C(c1cc(Cc2n[nH]c(=O)c3ccccc23)ccc1F)N1CCN(C(=O)C2CC2)CC1 [Olaparib] + CC1(C)CCC(CN2CCN(c3ccc(C(=O)NS(=O)(=O)c4ccc(NCC5CCOCC5)c([N+](=O)[O-])c4)c(Oc4cnc5[nH]ccc5c4)c3)CC2)=C(c2ccc(Cl)cc2)C1 [Venetoclax] (first compound max 10 µM, 7x7, partner max 1 µM)	0.0838	0.846	0.115	0.239	0.412	0.272	0.169	0.165	0.965	0.158	0.118	0.248	0.95	0.136						
CN(CCO)CC[C@H](CSc1ccccc1)Nc1ccc(S(=O)(=O)NC(=O)c2ccc(N3CCC([C@@H](O)c4ccccc4-c4ccc(Cl)cc4)CC3)cc2)cc1S(=O)(=O)C(F)(F)F [AZD4320] + CS(=O)(=O)CCNCc1ccc(-c2ccc3ncnc(Nc4ccc(OCc5cccc(F)c5)c(Cl)c4)c3c2)o1 [Lapatinib] (first compound max 1 µM, 7x7, partner max 10 µM)	0.244	1	0.928	0.951	0.586	1	0.268	0.328	1	1	0.262	0.701	0.984	0.388						
Cc1c2c(nn1C)CSCc1cc(n(C)n1)CSc1cc(c3ccccc3c1)OCCCc1c(C(=O)O)n(C)c3c-2c(Cl)ccc13 [AZD5991] + Nc1ccn([C@@H]2O[C@H](CO)[C@@H](O)C2(F)F)c(=O)n1 [Gemcitabine] (first compound max 1 µM, 7x7, partner max 0.3 µM)	0.527	0.407	0.6	0.587	0.49	1	1	0.878	0.928	0.889	0.725	0.944	0.982	0.197						
